Here are results for one compound from publication PMC2978906 (Cancer prevention research (Philadelphia, Pa.), 2010).

The experiment has as its target T1, estrogen receptor α (ER-α) (Homo sapiens, UniProt P03372).
T1 sequence (P03372 311-547 limits assumed): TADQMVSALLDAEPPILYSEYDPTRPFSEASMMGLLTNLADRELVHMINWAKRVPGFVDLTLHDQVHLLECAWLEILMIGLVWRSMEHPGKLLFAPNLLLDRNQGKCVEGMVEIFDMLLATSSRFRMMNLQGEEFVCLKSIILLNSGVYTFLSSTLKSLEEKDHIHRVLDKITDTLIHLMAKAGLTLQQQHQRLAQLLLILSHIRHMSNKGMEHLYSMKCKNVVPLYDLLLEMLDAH
The experiment can be described thus: LanthaScreen TR-FRET competitive binding assay. (Time-resolved FRET reads energy transfer from a long-lived donor to a nearby acceptor.)

The IC50 is the point on the concentration scale where inhibition reaches its midpoint. Low values mean greater potency, high ones weaker potency.

Turning to `CC(C)c1cc2c(c(O)c1O)[C@@]13CCCC(C)(C)[C@@H]1C[C@@H]2OC3=O` [carnosol], the 50% inhibitory concentration (IC50) stood at 51 µM.
